pIC50: −log10 of the molar value.
Assay: Binding to delta opioid receptor by using [3H]DPDPE as radioligand in guinea pig brain minus cerebellum

SMILES | pIC50
CC(=O)c1ccc2c3c1O[C@H]1[C@@H](O)C=C[C@H]4[C@@H](C2)N(C)CC[C@@]341 [1-[14-hydroxy-4-methyl-(1S,5R,13R,14S,17R)-12-oxa-4-azapentacyclo[9.6.1.01,13.05,17.07,18]octadeca-7(18),8,10,15-tetraen-10-yl]-1-ethanone] | 5.10
CN1CC[C@]23c4c5ccc(-c6ccoc6)c4O[C@H]2[C@@H](O)C=C[C@H]3[C@H]1C5 [10-(3-furyl)-4-methyl-(1S,5R,13R,14S,17R)-12-oxa-4-azapentacyclo[9.6.1.01,13.05,17.07,18]octadeca-7(18),8,10,15-tetraen-14-ol] | 5.13
